# Laboratory results taken from patent EP0562849A2, “Steroid derivatives” (priority 1992, dated 1993).
# Values joined by “and” are separate entries in the source; they are usually repeats but may differ in a detail not shown here. Identical values can stand only once. Like-named read-outs stand apart in the source and are kept apart here.
# Experiments:
# Syrian Golden hamsters = assay: In vivo serum cholesterol lowering in hamsters fed a cholesterol test diet; settings: for Serum Cholesterol Mean: 0.2% (w/w) in Cholesterol Test Diet for one week, equivalent to 100 mg/kg/day, groups of six, control mean 337; for inhibition in vivo at 100 mg/kg/day: Mesocricetus auratus, feed or water, 168 h, read-out: Percent Lowering of Cholesterol from Control Value Mean
# Experimental: Syrian Golden hamsters were fed a cholesterol test diet made of 10% coconut oil and 0.12% cholesterol (by weight) in Purina 5001 Rodent Chow to induce hypercholesteriolemia.
# After two weeks on the cholesterol test diet the hamsters were bled from the orbital sinium under light CO2 anesthesia. Serum was prepared and analyzed for cholesterol using a commercial test kit (Cholesterol High Performance, Single Vial™, product of Boehringer Mannheim Corp., Indianapolis, IN, USA). The hamsters were separated into groups of six animals, such that each group had approximately the same mean serum cholesterol levels. Selected compounds of the invention were incorporated into the Cholesterol Test Diet at 0.2% (w/w) and fed to the hamsters for one week. A control group of hamsters continued on the Cholesterol Test Diet during the same one-week period. The dose of test compounds of the invention was equivalent to 100 mg/kg/day based on the weight of the hamsters and their diet consumption. Upon completion of the test period, the animals were bled and serum cholesterol determined as above.
# Mean serum cholesterol values from the test hamsters were compared to values from the control group and tested for significance at the Z.05 level using Dunnett's test.
# [1] = test system: human LDL receptor promoter; assay: in vitro Luciferase Activity Test (LDL receptor promoter-luciferase reporter in recombinant CHO cells); assay type: cell-based; design: MED: unit not given here; settings: for Emax: Homo sapiens, CHO, read-out: MA%; for Emax / MA%: maximum activity (%) over control; for MED: minimum effective dose (molar concentration, unit not given), 24 hr, assay medium with 0.5 µg/ml 25-hydroxycholesterol; for RED: relative effective dose compared to compound of Example 4, below one = more active
# Experimental: A 1546 base pair sequence of the human LDL receptor promoter was amplified using the polymerase chain reaction. A reaction mixture containing 20 pMoles each of the synthetic oligonucleotides 5'-[…]-3' (Seq. I.D. No: 1) and 5'-AAG-[…]-3', (Seq. I.D. No:2) 1 µg human genomic DNA purified from the adenocarcinoma cell line P3UCLA, 200 µM each of dATP, dGTP, dCTP, and TTP, 2.5 units of Taq DNA polymerase, 10mM Tris-HCI pH 8.3, 50 mM KCI, […], 0.1% gelatin in a final volume of 100 µl was subjected to 30 cycles of 15 sec at 96°C, 30 sec at 55°C, and 1 min at 72°C. The material was subject to gel electrophoresis on a 1% agarose gel and the 1546 base pair band was isolated and restriction enzyme digested with Hind III and Nde I. This fragment was ligated into the plasmid pSP72 (ProMega Biotech), which had previously been restriction enzyme nuclease digested with Hind III and Nde I. The resulting vector, pNLDLRP, was restriction endonulease digested with Ndel and Hind III and the material was again run on a 1% agarose gel to reisolate the 1546 bp LDL receptor sequence.
# Plasmid vector PSv2 was constructed by digesting plasmid pSv2-globin with Hind III and Bgl II then ligating an Nrul-Xhol linker into the vector. Plasmid pSv2 globin is disclosed in U.S. Patent No. 4,775,624, the entire teaching of which is herein incorporated by reference. The linker contained the following sequences: [formula] (Seq. I.D. No: 3), and [formula] ' (Seq. I.D. No:4).
# The resulting vector was designated pSv2-H NXB because it contained a […], an Nrul site, an Xhol site and a Bgl site. The Hind III-Bgl II fragment of plasmid pAlc4(NRRL B-18783), which contains the firefly luciferase gene, was then ligated into the Hin III-Bgl site of plasmid pSv2-HNXB. A neomycin resistance-conforming gene was then ligated into the Bam HI site of the resultant plasmid to form plasmid pSv2.
# A 1546 base pair fragment was isolated and cloned into a Ndel and Hind III (partial) restriction digested vector pSv2 containing the firefly luciferase reporter gene and a gene for neomycin resistance. The resulting vector, pLDL-Luc1 Neo-10, contains the human LDL receptor promoter driving expression of the firefly luciferase gene, a gene coding for neomycin resistance, ampicillin resistant marker and an origin of replication.
# Plasmid pLDL-Luc 1 Neo-10 was used to stably transfect Chinese Hamster Ovary cells using a Lipofection Reagent kit and procedure from Gibco BRL Research Products Division Life Technologies Inc. Transformants were selected by picking individual colonies grown in Dulbecco's modified Eagle's medium supplimented with 10% fetal bovine serum and containing 500 µg per ml […]. […] Clone S27/B30 was used for subsequent screening.
# In developing a cell based screen it is important to have a negative control. The viral SV40 promoter is ideal for this purpose in that it has a number of SP1 elements that enhance gene transcription. These elements are not under the control of end product repression; but they do have a high degree of sequence homology with the 16 base pair long sterol response element found in the LDL receptor promoter. The SV40 promoter should therefore be a sensitive mechanism to screen out agents that induce nonspecific transcription.
# Chinese Hamster Ovary cells were stably cotransfected with a vector pSV2AL-A 5' containing the SV40 promoter driving expression of the firefly luciferase gene and a second vector pSV2 NeoBam containing a neomycin resistant marker. Transfections were carried out using the Lipofectin Reagent kit and procedure from Gibco BRL Research Products Division Life Technologies Inc. Transformants were selected by picking individual colonies grown in Dulbecco's modified Eagle's medium supplemented with 10% fetal bovine serum and containing 500 µg per ml of geneticin. Individual clones were selected, lysed and assayed for luciferase production. […]
# [2] = hamsters, 0.2% (w/w) in diet for one week (100 mg/kg/day), negative values = serum cholesterol increased relative to control
# [3] = NA is not active, 30% luciferase activity cutoff point (footnote 1)
# [4] = tests using 30% luciferase activity cutoff point (footnote 1)
# [5] = 30% luciferase activity cutoff point (footnote 1)
# [6] = 15% luciferase activity cutoff point (footnote 2)
# [7] = tests using 15% luciferase activity cutoff point (footnote 2)
molecule,measurement,setting,value
"CC(C)CCC[C@@H](C)[C@H]1CC[C@H]2[C@@H]3CCC4[C@H](Cc5ccccc5)C(=O)CC[C@]4(C)[C@H]3CC[C@]12C (stereo partly drawn) [(5), 4a-benzylcholestan-3-one]",Serum Cholesterol Mean,Syrian Golden hamsters; hamsters,202 mg/dL
same,Percent Lowering of Cholesterol from Control Value Mean,Syrian Golden hamsters; [2],40.2%
"C=CC[C@@H]1[C@@H](O)CC[C@@]2(C)[C@H]1CC[C@@H]1[C@@H]2CC[C@]2(C)[C@@H]([C@H](C)CCCC(C)C)CC[C@@H]12 [Example 80, (3β,4α,5α,20β)-4-(2-propenyl)cholestan-3-ol]",inhibition in vivo at 100 mg/kg/day,Syrian Golden hamsters; [2],20.2%
same,Serum Cholesterol Mean,Syrian Golden hamsters; hamsters,269 mg/dL
"C=CCC1C(=O)CC[C@@]2(C)C1CC[C@H]1[C@@H]3CC[C@H]([C@H](C)CCCC(C)C)[C@@]3(C)CC[C@@H]12 (stereo partly drawn) [(21), 4-(2-propenyl)cholestan-3-one]",inhibition in vivo at 100 mg/kg/day,Syrian Golden hamsters; [2],2%
same,Serum Cholesterol Mean,Syrian Golden hamsters; hamsters,330 mg/dL
"CC(C)CCC[C@@H](C)[C@H]1CC[C@H]2[C@@H]3CC[C@H]4C[C@H](O)CC[C@]4(C)[C@H]3CC[C@]12C [(24), 5a-cholestan-3a-ol, reference compound]",inhibition in vivo at 100 mg/kg/day,Syrian Golden hamsters,-25%
same,Serum Cholesterol Mean,Syrian Golden hamsters; hamsters,422 mg/dL
"C=CC[C@@H]1[C@H](O)CC[C@@]2(C)[C@H]1CC[C@@H]1[C@@H]2CC[C@]2(C)[C@@H]([C@H](C)CCCC(C)C)CC[C@@H]12 [(4), (3α,4α,5α,20β)-4-(2-propenyl)cholestan-3-ol]",Serum Cholesterol Mean,Syrian Golden hamsters; hamsters,198 mg/dL
same,Percent Lowering of Cholesterol from Control Value Mean,Syrian Golden hamsters; [2],41.4%
"C=CC[C@H]1C2CC[C@H]3[C@@H]4CC[C@H]([C@@](C)(O)CCCC(C)C)[C@@]4(C)CC[C@@H]3[C@@]2(C)CC[C@H]1O (stereo partly drawn) [(13), (3a,4a)-4-(2-propenyl)cholestane-3,20-diol]",inhibition in vivo at 100 mg/kg/day,Syrian Golden hamsters; [2],25.1%
same,Serum Cholesterol Mean,Syrian Golden hamsters; hamsters,253 mg/dL
"CC=CC[C@@H]1[C@@H](O)CC[C@@]2(C)[C@H]1CC[C@@H]1[C@@H]2CC[C@]2(C)[C@@H]([C@H](C)CCCC(C)C)CC[C@@H]12 [(12), (3β,4α,5α)-4-(2-butenyl)cholestan-3-ol]",inhibition in vivo at 100 mg/kg/day,Syrian Golden hamsters; [2],27.4%
same,Serum Cholesterol Mean,Syrian Golden hamsters; hamsters,245 mg/dL
"(3β,4α,5α,20β)-4-(2-propenyl)cholestan-3-amine [(22)]",Serum Cholesterol Mean,Syrian Golden hamsters; hamsters,345 mg/dL
same,Percent Lowering of Cholesterol from Control Value Mean,Syrian Golden hamsters; [2],-2.4%
"C/C=C/C[C@@H]1C(=O)CC[C@]2(C)[C@H]3CC[C@]4(C)[C@@H]([C@H](C)CCCC(C)(C)O)CC[C@H]4[C@@H]3CC[C@@H]12 [Example 3, [4a(E),5a]-4-(2-butenyl)-25-hydroxycholestan-3-one]",Emax,[1]; [3],144%
same,MED,[1]; [4],2.2
same,RED,[1]; [5],0.97
"CC(C)CCC[C@@H](C)[C@H]1CC[C@H]2[C@@H]3CC[C@H]4[C@H](CC=C(Br)Br)[C@H](O)CC[C@]4(C)[C@H]3CC[C@]12C [(14), (3a,4a,5a)-4-(3,3-dibromo-2-propenyl)cholestan-3-ol]",inhibition in vivo at 100 mg/kg/day,Syrian Golden hamsters; [2],23.2%
same,Serum Cholesterol Mean,Syrian Golden hamsters; hamsters,259 mg/dL
"CC(C)CCC[C@@H](C)[C@H]1CC[C@H]2[C@@H]3CCC4[C@H](Cc5ccccc5)C(=O)CC[C@]4(C)[C@H]3CC[C@]12C (stereo partly drawn) [(19), 4a-benzylcholestan-3-one]",Serum Cholesterol Mean,Syrian Golden hamsters; hamsters,312 mg/dL
same,Percent Lowering of Cholesterol from Control Value Mean,Syrian Golden hamsters; [2],7.5%
"C/C=C/C[C@@H]1[C@H](NC(C)=O)CC[C@@]2(C)[C@H]1CC[C@@H]1[C@@H]2CC[C@]2(C)[C@@H]([C@H](C)CCCC(C)C)CC[C@@H]12 [Example 9, [4a(E),5a]-4-(2-butenyl)-3a acetamidocholestane]",Emax,[1]; [3],60%
same,MED,[1]; [4],2.0
same,RED,[1]; [5],0.88
"C[C@H](CCCN(C)C)[C@H]1CC[C@H]2[C@@H]3[C@H](O)C[C@@H]4C[C@H](O)CC[C@]4(C)[C@H]3CC[C@]12C [Example 54, 3a,7a-dihydroxy-25-azacoprostane]",MA%,[1]; [3],102% and 92%
same,MED,[1]; [4],12.3
4a-4-(2-propenyl)cholestan-3-one [Example 72],Serum Cholesterol Mean,Syrian Golden hamsters; hamsters,267 mg/dL
same,Percent Lowering of Cholesterol from Control Value Mean,Syrian Golden hamsters; [2],20.8%
"[4a(E),5α]-4-(2-butenyl)-25-hydroxycholestan-3a-ol [Example 6]",MA%,[1]; [6],72% and 67%
same,MED,[1]; [7],21.7
same,RED,[1]; [6],0.96 and 1.90
"CC(C)CCC[C@@H](C)[C@H]1CC[C@H]2[C@@H]3CCC4=C(Cc5ccccc5)[C@H](O)CC[C@]4(C)[C@H]3CC[C@]12C [Example 38, 4-benzyl-4-cholesten-3a-ol]",MA%,[1]; [6],33% and 58%
same,MED,[1]; [7],84 and 42
same,RED,[1]; [6],7.37 and 3.7
"CC(C)CCC[C@@H](C)[C@H]1CC[C@H]2[C@@H]3CCC4[C@H](Cc5ccccc5)[C@H](O)CC[C@]4(C)[C@H]3CC[C@]12C (stereo partly drawn) [Example 22, 4a-benzylcholestan-3a-ol]",Emax,[1]; [3],18%
"C=CC[C@H]1C2=CC[C@H]3[C@@H]4CC[C@H]([C@H](C)CCCC(C)C)[C@@]4(C)CC[C@@H]3[C@@]2(C)CC[C@H]1O [Example 40, 4a-(2-propenyl)-5-cholesten-3a-ol]",Emax,[1]; [6],99%
same,MA%,[1]; [3],110% and 71%
same,MED,[1]; [7],2.3
same,RED,[1]; [6],1.0
same,RED,[1]; [5],0.51 and 0.52
"C=CC[C@@H]1C(=O)/C(=C/O)C[C@]2(C)[C@H]3CC[C@]4(C)[C@@H]([C@H](C)CCCC(C)C)CC[C@H]4[C@@H]3CC[C@@H]12 [Example 73, 4a-2-(hydroxymethylene)-4-(2-propenyl)cholestan-3-one]",Emax,[1]; [6],27%
same,MED,[1]; [7],11.0
same,RED,[1]; [6],0.97
"C/C=C/C[C@@H]1[C@@H](NC(C)=O)CC[C@@]2(C)[C@H]1CC[C@@H]1[C@@H]2CC[C@]2(C)[C@@H]([C@H](C)CCCC(C)C)CC[C@@H]12 [Example 10, [4a(E),5a]-4-(2-butenyl)-3b acetamidocholestane]",Emax,[1]; [3],55%
same,MED,[1]; [4],10.3
same,RED,[1]; [5],4.5
"C=CC[C@@H]1[C@H](O)CC[C@@]2(C)[C@H]1CC[C@@H]1[C@@H]2CC[C@]2(C)[C@@H]([C@H](C)/C=C/[C@@H](CC)C(C)C)CC[C@@H]12 [Example 98, (3a, 4a, 5a, 22E)-4-(2-propenyl)-stigmast-22-en-3-ol]",Emax,[1]; [3],66%
same,MED,[1]; [4],22
same,RED,[1]; [5],2.0
